The data set can be described thus: Dissolved amount in water (Test Example 1). Type of data set: physicochemical. The settings on record: 5 mg sample in 1 mL water, shaken, supernatant measured by HPLC. As for the experimental part:
Each of the above-prepared Formulation 1 and the solid dispersions of Formulations 2 to 6 was separately dispersed in water. Sampling from each solution was performed at 15, 30, and 60 minutes after dispersion, and the concentration of ((1S)-1-((((1S)-1-benzyl-2,3-dioxo-3-(cyclopropylamino)propyl)amino) carbonyl)-3-methylbutyl)carbamic acid 5-methoxy-3-oxapentyl ester was measured according to the procedure shown below.
To 5 mg of each of the above-prepared Formulation 1 and the solid dispersions of Formulations 2 to 6, 1 mL of water was added and the mixture was shaken with a shaker (Labindustries Inc., Labquake Shaker L1237). Shaking was stopped when the predetermined sampling time elapsed, and centrifugation at 13000 rpm was immediately performed at 25° C. for 5 minutes with a centrifugal separator (Kendro Lab Products, Sorvall Biofuge Fresco) to give a supernatant. A sample solution was prepared by mixing 0.5 mL of methanol to 0.5 mL of the supernatant and then measured for concentration of ((1S)-1-((((1S)-1-benzyl-2,3-dioxo-3-(cyclopropylamino)propyl)amino)carbonyl)-3-methylbutyl) carbamic acid 5-methoxy-3-oxapentyl ester by HPLC (Shimadzu, 10A-VP system).
Detector: ultraviolet absorptiometer (detection wavelength: 252 nm)
Column: YMC-Pack ODS-A (inside diameter: 4.6 mm, length: 250 mm, particle diameter: 5 μm, YMC)
Column temperature: constant temperature at around 40° C. […]

As to `COCCOCCOC(=O)N[C@@H](CC(C)C)C(=O)N[C@@H](Cc1ccccc1)C(=O)C(=O)NC1CC1` [((1S)-1-((((1S)-1-benzyl-2,3-dioxo-3-(cyclopropylamino)propyl)amino)carbonyl)-3-methylbutyl)carbamic acid 5-methoxy-3-oxapentyl ester], the “dissolved amount in water” value is given as 0.45 mg/mL.

The record behind these values is patent publication US8697746B2, “Solid dispersion of alpha-ketoamide derivatives” (Senju Pharmaceutical Co., Ltd., priority 2010, dated 2014).
